Measurements as given in patent US20050164182A1, “Nucleotide analogues” (priority 2001, published 2005).
“Also recorded” adds a separate entry of the source.

How the values were obtained:
[1] = target: T1, subtilisin (Subtilopeptidase A, type VIII) (Bacillus licheniformis, UniProt P00780); experiment: Protease mediated cleavage of FamHex-GGL-β-A-2′dU, HPLC and MALDI-TOF analysis; format: biochemical; details: 2 hours at 37° C., pH 7.5
T1 construct: purchased Sigma Chemical Co. UK
T1 sequence (P00780 106-379): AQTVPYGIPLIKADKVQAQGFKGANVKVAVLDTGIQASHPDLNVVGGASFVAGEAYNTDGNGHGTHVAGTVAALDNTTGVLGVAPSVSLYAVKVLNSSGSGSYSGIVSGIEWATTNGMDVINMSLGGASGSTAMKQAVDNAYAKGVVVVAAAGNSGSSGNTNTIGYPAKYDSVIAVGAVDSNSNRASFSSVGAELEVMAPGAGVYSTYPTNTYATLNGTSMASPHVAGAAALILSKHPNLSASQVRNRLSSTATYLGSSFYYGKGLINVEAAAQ
Experimental: A 10 μg aliquot of the substrate FAMHEX-GGL-β-A 2′dU (compound 6 above) was dissolved in 0.1M sodium acetate buffer pH 7.5 containing 5 mM calcium acetate. The substrate solution was digested at 37° C. for 2 hours in 200 μl in the presence of 0.5 units of subtilisin (Subtilopeptidase A, type VIII, Sigma Chemical Co. UK).
The resulting digest was ultrafiltered using a Microcon YM10 Concentrator (Milipore Ltd., UK) and the filtrate analysed by HPLC (Gilson 170, Gilson, UK) on a Sephasil™ peptide C-18 column (Amersham Biosicences, UK). […] These eluted at 29.8 (I), 32.6 (II), 26.7 (III) and 37.1 (IV) minutes on an acetonitrile gradient of 50% to 70%. The peaks were collected and analysed by MALDI-TOF mass spectrometry (Bruker Biflex II, Brucker, Germany). A matrix of 10 mg/ml 3-hydroxycinnamic acid in acetonitrile and 1% TFA was used for the analysis. The mass spectrometer was calibrated with 100 mM Bradykinin 1-7 (Sigma Chemical Co., UK).

Thermosequenase = experiment: Primer extension reactions: incorporation of fluorescently labelled deoxynucleotide triphosphates by DNA polymerase; format: biochemical; details: number of consecutive fluor-labelled nucleotides added; templates with 2, 3 or 8 consecutive A residues; 48° C. for 45 minutes

| Substance | cleavage of the linker by subtilisin [1] | site of hydrolysis by subtilisin ([1]; molecular ion of 717 in peak II) | predominant product with templates 3, 4 and 5 (Thermosequenase) |
| --- | --- | --- | --- |
| 5-N-[N-(6-Fluorescein-5(and 6)carboxamidohexanoyl)-Gly-Gly-Leu-β-alanyl]-propargylamino-2′-deoxyuridine [Compound 6] | consistent with the cleavage of the linker by the subtilisin enzyme; also recorded: readily digested by subtilisin | at the peptide bond on the carboxyl side of the leucine residue; also recorded: cleaves at the leucine residue | – |
| Alexa Fluor 568-5-dUTP [Alexa 568-5-dUTP] | – | – | One addition |
| Alexa Fluor 594-5-dUTP [Alexa 594-5-dUTP] | – | – | One addition |
| Cy3 dUTP | – | – | One addition, with minor two additions |
| Cy5 dUTP | – | – | One addition, with minor two additions |
| Lissamine-5-dUTP | – | – | One addition, with very slight two additions |
| Texas Red-5-dUTP | – | – | One addition, with very slight two additions |
